The values below come from ChEMBL document CHEMBL4732086, “Targeting nuclear protein TDP-43 by cell division cycle kinase 7 inhibitors: A new therapeutic approach for amyotrophic lateral sclerosis” (Eur J Med Chem, 2021).

In general, IC50 refers to the point on the concentration scale where inhibition reaches its midpoint.

For test [1], the target named is Tyrosine-protein kinase JAK2 (Homo sapiens) (UniProt O60674). Kind of test: Inhibition of recombinant human GST-tagged JAK2 expressed in baculovirus expression system using Tyr-06 peptide as substrate at 10 uM incubated for 60 mins in presence of ATP by Z'-LYTE assay.
Test [2] has as its target CDC7/DBF4 (Cell division cycle 7-related protein kinase/Activator of S phase kinase) (Homo sapiens, UniProt O00311). Briefly: Inhibition of recombinant human CDC7/Dbf4 expressed in baculovirus infected Sf9 insect cells assessed as inhibition of fluorescein labelled substrate phosphorylation in presence of ATP measured after 60 mins by TR-FRET assay. In general terms: TR-FRET usually uses a lanthanide donor and a delayed reading to cut background.

The target of test [3] is Tyrosine-protein kinase Lck (Homo sapiens) (UniProt P06239). Kind of test: Inhibition of recombinant human His-tagged LCK expressed in baculovirus expression system using Tyr-02 peptide as substrate at 10 uM incubated for 60 mins in presence of ATP by Z'-LYTE assay.
In test [4] the target is CDC7/DBF4 (Cell division cycle 7-related protein kinase/Activator of S phase kinase) (Homo sapiens) (UniProt Q9UBU7+O00311). Briefly: Inhibition of recombinant human GST tagged CDC7/Dbf4 expressed in baculovirus expression system at 10 uM by Z'-LYTE assay.
Sequence of CDC7/DBF4 (Cell division cycle 7-related protein kinase/Activator of S phase kinase) (Homo sapiens) (O00311 whole entry, looked up): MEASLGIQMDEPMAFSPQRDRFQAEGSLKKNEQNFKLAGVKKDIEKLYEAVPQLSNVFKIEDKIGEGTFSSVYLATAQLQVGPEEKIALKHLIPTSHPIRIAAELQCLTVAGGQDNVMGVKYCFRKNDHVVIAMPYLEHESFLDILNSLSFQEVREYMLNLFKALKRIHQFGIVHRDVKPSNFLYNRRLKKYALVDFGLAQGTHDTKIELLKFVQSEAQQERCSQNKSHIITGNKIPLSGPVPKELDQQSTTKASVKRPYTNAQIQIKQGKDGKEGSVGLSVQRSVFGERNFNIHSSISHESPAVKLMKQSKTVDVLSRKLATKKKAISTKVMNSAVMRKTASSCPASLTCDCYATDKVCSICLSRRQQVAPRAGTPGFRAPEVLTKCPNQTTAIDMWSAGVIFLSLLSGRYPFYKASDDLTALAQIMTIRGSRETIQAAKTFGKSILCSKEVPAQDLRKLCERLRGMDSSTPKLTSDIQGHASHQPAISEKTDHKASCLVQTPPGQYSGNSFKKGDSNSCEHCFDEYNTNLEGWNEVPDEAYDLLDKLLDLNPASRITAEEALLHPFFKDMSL
Sequence of CDC7/DBF4 (Cell division cycle 7-related protein kinase/Activator of S phase kinase) (Homo sapiens) (Q9UBU7 whole entry, looked up): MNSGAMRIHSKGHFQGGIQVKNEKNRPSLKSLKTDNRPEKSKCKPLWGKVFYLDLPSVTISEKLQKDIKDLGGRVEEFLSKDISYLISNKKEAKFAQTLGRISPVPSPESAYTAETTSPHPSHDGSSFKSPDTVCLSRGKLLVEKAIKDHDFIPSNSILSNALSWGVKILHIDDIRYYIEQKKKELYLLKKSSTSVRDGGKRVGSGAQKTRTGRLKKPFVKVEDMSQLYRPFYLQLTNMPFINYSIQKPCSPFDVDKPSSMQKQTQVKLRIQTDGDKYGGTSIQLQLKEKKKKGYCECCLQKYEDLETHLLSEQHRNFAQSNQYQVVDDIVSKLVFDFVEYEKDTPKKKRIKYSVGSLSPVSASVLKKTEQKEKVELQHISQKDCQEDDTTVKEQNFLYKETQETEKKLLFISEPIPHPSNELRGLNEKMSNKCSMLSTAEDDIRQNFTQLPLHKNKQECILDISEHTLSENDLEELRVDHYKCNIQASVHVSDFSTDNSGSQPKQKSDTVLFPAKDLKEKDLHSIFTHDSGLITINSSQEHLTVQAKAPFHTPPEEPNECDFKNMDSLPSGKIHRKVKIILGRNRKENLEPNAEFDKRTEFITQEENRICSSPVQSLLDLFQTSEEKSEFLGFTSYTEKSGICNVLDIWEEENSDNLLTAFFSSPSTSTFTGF
Test [5] has as its target cAMP-dependent protein kinase catalytic subunit alpha (Homo sapiens) (UniProt P17612). Briefly: Inhibition of recombinant human His-tagged PRKACA expressed in Escherichia coli expression system using serine/threonine-01 peptide as substrate at 10 uM by Z'-LYTE assay. As to conditions: time 60.0 min.
Test [6] addresses T1, Serine/threonine-protein kinase Chk1 (Homo sapiens) (UniProt O14757).
T1 sequence (whole entry): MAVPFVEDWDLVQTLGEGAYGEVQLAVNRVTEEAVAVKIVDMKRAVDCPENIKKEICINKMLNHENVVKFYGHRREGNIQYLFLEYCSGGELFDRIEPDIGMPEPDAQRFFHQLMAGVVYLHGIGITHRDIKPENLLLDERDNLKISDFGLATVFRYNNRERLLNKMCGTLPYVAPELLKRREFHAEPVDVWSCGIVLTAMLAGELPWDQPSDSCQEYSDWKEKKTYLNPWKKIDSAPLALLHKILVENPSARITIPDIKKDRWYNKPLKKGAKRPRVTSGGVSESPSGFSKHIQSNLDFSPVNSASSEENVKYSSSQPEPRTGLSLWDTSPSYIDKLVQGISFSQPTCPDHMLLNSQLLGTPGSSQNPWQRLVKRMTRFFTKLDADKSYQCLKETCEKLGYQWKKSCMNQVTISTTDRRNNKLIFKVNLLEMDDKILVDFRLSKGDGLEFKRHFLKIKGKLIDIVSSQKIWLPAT
Briefly: Inhibition of human CHK1 using serine/threonine-07 peptide as substrate at 10 uM incubated for 60 mins in presence of ATP by Z'-LYTE assay.

Test [7] concerns the target Aurora kinase B (Homo sapiens) (UniProt Q96GD4). Kind of test: Inhibition of recombinant full length His-tagged human AURKB expressed in baculovirus expression system using Ser/Thr-01 peptide as substrate at 10 uM incubated for 60 mins in presence of ATP by Z'-LYTE assay.
For test [8], the target named is RAC-alpha serine/threonine-protein kinase (Homo sapiens) (UniProt P31749). Briefly: Inhibition of recombinant full length human His-tagged AKT1 using serine/threonine-06 peptide as substrate at 10 uM incubated for 60 mins in presence of ATP by Z'-LYTE assay.
Sequence of RAC-alpha serine/threonine-protein kinase (Homo sapiens) (P31749 whole entry): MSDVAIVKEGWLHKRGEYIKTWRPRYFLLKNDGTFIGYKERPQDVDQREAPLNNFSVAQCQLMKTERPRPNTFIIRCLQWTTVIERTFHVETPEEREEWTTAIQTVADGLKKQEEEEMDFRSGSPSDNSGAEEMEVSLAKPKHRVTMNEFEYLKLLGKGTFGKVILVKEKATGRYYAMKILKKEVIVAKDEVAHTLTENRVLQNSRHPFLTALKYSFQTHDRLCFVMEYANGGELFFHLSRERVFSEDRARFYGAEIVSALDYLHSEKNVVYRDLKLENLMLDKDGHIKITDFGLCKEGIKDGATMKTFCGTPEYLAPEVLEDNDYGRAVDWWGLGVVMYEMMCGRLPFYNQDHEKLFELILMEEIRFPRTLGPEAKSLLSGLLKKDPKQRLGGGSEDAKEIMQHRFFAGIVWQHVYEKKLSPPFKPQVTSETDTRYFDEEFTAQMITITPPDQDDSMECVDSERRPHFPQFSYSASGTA
The target in test [9] is Casein kinase II subunit alpha (Homo sapiens) (UniProt P68400). Briefly: Inhibition of recombinant human full length His-tagged CSNK2A1 expressed in baculovirus expression system using serine/threonine-11 peptide as substrate at 10 uM incubated for 60 mins in presence of ATP by Z'-LYTE assay.
Sequence of Casein kinase II subunit alpha (Homo sapiens) (P68400 whole entry, looked up): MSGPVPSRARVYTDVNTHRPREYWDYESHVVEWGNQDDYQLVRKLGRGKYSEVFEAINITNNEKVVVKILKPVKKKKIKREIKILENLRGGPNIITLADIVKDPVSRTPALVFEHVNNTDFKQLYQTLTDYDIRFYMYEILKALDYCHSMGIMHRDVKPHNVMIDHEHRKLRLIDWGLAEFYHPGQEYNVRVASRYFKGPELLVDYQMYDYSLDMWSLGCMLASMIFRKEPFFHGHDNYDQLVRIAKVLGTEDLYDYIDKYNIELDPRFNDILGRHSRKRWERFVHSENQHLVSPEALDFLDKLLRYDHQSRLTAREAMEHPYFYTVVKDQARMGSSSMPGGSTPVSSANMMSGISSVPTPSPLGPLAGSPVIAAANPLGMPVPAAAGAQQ
The target of test [10] is Calcium/calmodulin-dependent protein kinase type 1D (Homo sapiens) (UniProt Q8IU85). Kind of test: Inhibition of recombinant full length human His-tagged CAMK1delta expressed in baculovirus expression system using serine/threonine-25 peptide as substrate at 10 uM incubated for 60 mins in presence of ATP by Z'-LYTE assay.
Sequence of Calcium/calmodulin-dependent protein kinase type 1D (Homo sapiens) (Q8IU85 whole entry, looked up): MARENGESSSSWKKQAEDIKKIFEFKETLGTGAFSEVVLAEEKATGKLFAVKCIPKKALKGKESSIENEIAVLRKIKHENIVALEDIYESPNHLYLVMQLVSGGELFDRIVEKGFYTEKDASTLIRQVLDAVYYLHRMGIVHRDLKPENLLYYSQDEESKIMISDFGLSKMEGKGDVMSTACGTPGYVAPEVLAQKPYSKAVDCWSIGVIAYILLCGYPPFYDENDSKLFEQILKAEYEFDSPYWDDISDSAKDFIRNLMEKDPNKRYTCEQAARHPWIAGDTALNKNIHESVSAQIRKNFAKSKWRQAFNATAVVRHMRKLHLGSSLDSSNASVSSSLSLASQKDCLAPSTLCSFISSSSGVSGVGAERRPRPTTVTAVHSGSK
Test [11] deals with CDK2/Cyclin A2 (Homo sapiens) (UniProt P24941+P20248). Kind of test: Inhibition of recombinant full length human His-tagged CDK2/Cyclin A expressed in baculovirus expression system using serine/threonine-12 peptide as substrate at 10 uM incubated for 60 mins in presence of ATP by Z'-LYTE assay.
Test [12] has as its target Cell division cycle 7-related protein kinase (Homo sapiens) (UniProt O00311). Briefly: Inhibition of human CDC7 in human SH-SY5Y cells assessed as prevention of ethacrynic acid-induced cell death preincubated for 1 hr followed by incubation with ethacrynic acid for 24 hrs measured at 10 uM by MTT assay relative to control. The format is cell-based. (In general: Tetrazolium assays rely on reduction of a dye to a coloured formazan, in cell work by metabolically active cells.)

Test [13] has as its target T2, Mitogen-activated protein kinase 13 (Homo sapiens) (UniProt O15264).
T2 sequence (whole entry): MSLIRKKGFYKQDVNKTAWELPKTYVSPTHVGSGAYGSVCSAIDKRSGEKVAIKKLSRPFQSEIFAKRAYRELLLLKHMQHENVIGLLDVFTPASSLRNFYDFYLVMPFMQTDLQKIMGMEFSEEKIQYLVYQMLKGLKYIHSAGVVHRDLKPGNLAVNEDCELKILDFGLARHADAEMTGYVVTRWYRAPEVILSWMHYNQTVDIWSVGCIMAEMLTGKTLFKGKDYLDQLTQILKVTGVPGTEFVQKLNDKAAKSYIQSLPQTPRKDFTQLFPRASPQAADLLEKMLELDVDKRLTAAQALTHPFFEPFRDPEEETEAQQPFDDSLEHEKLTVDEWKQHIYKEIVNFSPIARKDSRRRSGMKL
Briefly: Inhibition of recombinant human full length His-tagged MAPK13 expressed in baculovirus expression system using serine/threonine-03 peptide as substrate at 10 uM incubated for 60 mins in presence of ATP by Z'-LYTE assay.

Test [14] has as its target Serine/threonine-protein kinase pim-3 (Homo sapiens) (UniProt Q86V86). Briefly: Inhibition of recombinant human GST-tagged PIM3 expressed in baculovirus expression system using serine/threonine-07 peptide as substrate at 10 uM by Z'-LYTE assay. As to conditions: time 60.0 min.
For the next test, the species on record is Homo sapiens. Briefly: Inhibition of recombinant full length human His-tagged CDK1/CyclinB expressed in baculovirus expression system using serine/threonine-18 peptide as substrate at 10 uM incubated for 60 mins in presence of ATP by Z'-LYTE assay.
The target in test [15] is Mitogen-activated protein kinase 3 (Homo sapiens) (UniProt P27361). Kind of test: Inhibition of recombinant human full length GST-tagged MAPK3 expressed in Escherichia coli expression system using serine/threonine-03 peptide as substrate at 10 uM by Z'-LYTE assay. As to conditions: time 60.0 min.
Sequence of Mitogen-activated protein kinase 3 (Homo sapiens) (P27361 whole entry): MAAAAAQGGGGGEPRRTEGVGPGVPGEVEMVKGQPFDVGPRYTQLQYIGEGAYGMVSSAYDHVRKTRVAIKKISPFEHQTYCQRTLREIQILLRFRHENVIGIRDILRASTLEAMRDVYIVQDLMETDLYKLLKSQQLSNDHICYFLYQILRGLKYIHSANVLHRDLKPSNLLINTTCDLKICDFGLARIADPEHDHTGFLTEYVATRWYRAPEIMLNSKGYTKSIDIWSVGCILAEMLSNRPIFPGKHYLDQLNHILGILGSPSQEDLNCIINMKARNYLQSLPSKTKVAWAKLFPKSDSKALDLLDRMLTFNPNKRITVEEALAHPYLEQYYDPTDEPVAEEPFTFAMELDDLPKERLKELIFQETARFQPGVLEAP
For test [16], the target named is Cyclin-dependent kinase 5/CDK5 activator 1 (Homo sapiens) (UniProt Q00535+Q15078). Kind of test: Inhibition of recombinant full length human GST/His-tagged CDK5/p25 expressed in baculovirus expression system using serine/threonine-12 peptide as substrate at 10 uM incubated for 60 mins in presence of ATP by Z'-LYTE assay.
Sequence of Cyclin-dependent kinase 5/CDK5 activator 1 (Homo sapiens) (Q00535 whole entry): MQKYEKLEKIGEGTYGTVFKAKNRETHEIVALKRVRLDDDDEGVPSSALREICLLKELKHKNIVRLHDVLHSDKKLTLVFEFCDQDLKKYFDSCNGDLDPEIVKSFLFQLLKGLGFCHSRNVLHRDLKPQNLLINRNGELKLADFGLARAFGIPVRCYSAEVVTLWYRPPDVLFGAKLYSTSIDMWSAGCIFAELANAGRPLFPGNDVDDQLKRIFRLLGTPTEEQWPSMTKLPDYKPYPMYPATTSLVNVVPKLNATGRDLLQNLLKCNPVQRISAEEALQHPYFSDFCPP
Sequence of Cyclin-dependent kinase 5/CDK5 activator 1 (Homo sapiens) (Q15078 99-307 partner limits assumed): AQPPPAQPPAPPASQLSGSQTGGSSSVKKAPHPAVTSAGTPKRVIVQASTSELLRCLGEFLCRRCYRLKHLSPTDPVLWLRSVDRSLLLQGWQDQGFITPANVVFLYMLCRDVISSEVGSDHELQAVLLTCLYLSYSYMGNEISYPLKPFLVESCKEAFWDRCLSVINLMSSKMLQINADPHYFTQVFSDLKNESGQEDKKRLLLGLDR
Test [17] deals with Maternal embryonic leucine zipper kinase (Homo sapiens) (UniProt Q14680). Briefly: Inhibition of recombinant human full length GST-tagged MELK expressed in baculovirus expression system using serine/threonine-21 peptide as substrate at 10 uM by Z'-LYTE assay. As to conditions: time 60.0 min.

The structures appear in SMILES notation. Calls of active or inactive are those of the source. The rule behind the calls is not given here.

Sequence of Cell division cycle 7-related protein kinase (Homo sapiens) (O00311 whole entry, looked up): as the sequence (O00311 whole entry, looked up) above
Sequence of Aurora kinase B (Homo sapiens) (Q96GD4 whole entry): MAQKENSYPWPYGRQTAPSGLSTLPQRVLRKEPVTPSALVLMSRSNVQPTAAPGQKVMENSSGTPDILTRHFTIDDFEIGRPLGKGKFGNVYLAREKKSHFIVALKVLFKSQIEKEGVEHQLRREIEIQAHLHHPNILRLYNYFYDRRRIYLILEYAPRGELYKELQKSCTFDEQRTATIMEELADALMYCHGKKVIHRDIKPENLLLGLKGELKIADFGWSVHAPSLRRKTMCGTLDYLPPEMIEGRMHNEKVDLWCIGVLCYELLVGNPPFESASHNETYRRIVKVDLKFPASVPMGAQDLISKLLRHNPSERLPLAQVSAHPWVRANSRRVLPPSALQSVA

With `Brc1ccccc1CSc1ncnc2[nH]cnc12`, the inhibition entry in [1], in [3], in test [5], in test [6], in [7] and in test [8] was “inactive” throughout. For the same compound, the inhibition result (in test [9]; in [10]; in test [11]; in test [13]; in test [14]; in the test filed under Homo sapiens) was “inactive” each time. In addition, the inhibition entry in test [15], in [16] and in test [17] was “inactive” throughout. In addition, the IC50 in test [2] stood at 270 nM. In addition, the inhibition result in test [4] and in test [12] was “Active” in each case.
Regarding `Clc1cccc(CSc2ncnc3[nH]cnc23)c1`, the inhibition result in test [1], in test [3], in test [5], in test [6], in [7] and in [8] was “inactive” each time. For the same compound, the inhibition entry (in test [9]; in test [10]; in test [11]; in test [13]; in test [14]; in the test filed under Homo sapiens) was “inactive” in each case. Moreover, the inhibition entry in [15], in test [16] and in test [17] was “inactive” throughout. Also, the IC50 in [2] was 140 nM. The inhibition entry in test [4] and in [12] was “Active” throughout.
Turning to `c1ccc(CSc2ncnc3[nH]cnc23)cc1`, the inhibition result in test [1], in test [3], in test [5], in test [6], in test [7] and in test [8] was “inactive” each time. Besides, the inhibition entry (in [9]; in test [10]; in [11]; in test [13]; in [14]; in the test filed under Homo sapiens) was “inactive” in each case. For the same compound, the inhibition entry in [15], in [16] and in test [17] was “inactive” throughout. Moreover, the IC50 in test [2] came out at 200 nM. Besides, the inhibition result in test [4] and in test [12] was “Active” each time.
